This is an account of results in PMC7459852, “Identification of 6-(piperazin-1-yl)-1,3,5-triazine as a chemical scaffold with broad anti-schistosomal activities” (Wellcome Open Research, 2020).

Each structure is given as a SMILES string. Read-outs that look alike come from different tables or passages of the source.

For one assay, the system named is S. mansoni schistosomula. Put plainly: Schistosomula screens (Roboworm, phenotype and motility). The format is cell-based, Schistosoma mansoni. To be noted: 72 h; for EC50: Schistosoma mansoni. The protocol:
Anthelmintic activity on the schistosomula stage of S. mansoni was evaluated using Roboworm, an integrated high-throughput, high content image analysis platform originally developed by Paveley et al. and subsequently used by our research group as previously described, [28], [50], [51]. Alternatively, the computer application Worminator can be used to assess motion of microscopic parasites such as the schistosomula stage of S. mansoni. Compounds (as single concentration or two-fold titrations) were prepared for screening in a 384-well plate (PerkinElmer, MA, USA), where solutions (1.6 mM, 0.5 μl) were wet stamped using the Biomek NX ^P liquid handling platform into Basch medium (20 μl). Negative (0.625% DMSO) and positive (Auranofin - AUR - at 10 µM final concentration in 0.625% DMSO) control wells were similarly prepared. Mechanically transformed schistosomula (about 120 parasites in 60 μl of Basch medium) were distributed into each treated well using a WellMate (Thermo Scientific, Loughborough, UK). Schistosomula/compound co-cultures were then incubated at 37°C for 72 h in a humidified atmosphere containing 5% CO 2. At 72 h, parasite/compound co-cultures were resuspended and tissue culture plates were imaged under the same conditions (37°C for 72 h in a humidified atmosphere containing 5% CO 2) using an ImageXpressXL high content imager (Molecular Devices, UK) with subsequent images processed for phenotype and motility as previously reported. Plate analysis returned a phenotype and motility score for each well and any scores below -0.15 and -0.35 (defined threshold anti-schistosomula values for phenotype and motility scores, respectively) defined a condition displaying anti-schistosomula activity. Compound screens were assessed based on the Z´ values (derived from the means and standard deviations of positive and negative controls) and those equal to or above 0.3 for both phenotype and motility were considered successful.
Phenotype and motility scores of each titration were used to generate dose response curves in GraphPad Prism 7.02 based on the corrected average score of the three replicates for each data point.

In assay [1] the test system is schistosomula and adult schistosomes. More on the design: method as in PMID 31730617. To be noted: SGC collection tested by the authors' laboratory; cited from earlier work.
Setting [2] is: average of phenotype and motility metrics, read-out: Schistosomula EC50 Average.
[3] abbreviates: dose response titrations (10 - 0.625 µM), read-out: Schistosomula EC50 Motility.
Setting [4] is: dose response titrations (10 - 0.625 µM), read-out: Schistosomula EC50 Phenotype.

Take `O=C1CNC(=O)/C1=C\Nc1ccc(O)cc1` [Compound 4]: in the assay on S. mansoni schistosomula (50 µM), the “anti-schistosomula activity (hit on phenotype and motility)” value (from here on “anti-schistosomula activity”) is on record as “showed anti-schistosomal activity”; the schistosomula phenotype induced result is on record as “elongated phenotype”.
Turning to `O=C(c1ccc(Cl)cc1)N1CCN(c2nc(N3CCCCC3)nc(N3CCCCC3)n2)CC1` [Compound 19], the concentration for a half-maximal effect (EC50) with S. mansoni schistosomula (setting [2]), in the assay with S. mansoni schistosomula (setting [3]) and in the assay with S. mansoni schistosomula (setting [4]) was more than 50 µM in each case.
For the molecule `CCOC(=O)CCNc1cc(N2CCc3ccccc3CC2)nc(-c2ccccn2)n1` [GSK-J4], in assay [1], the “activity on schistosomula and adult schistosomes” value was “potent activities”.
`CCN(C(=O)CO)[C@H]1CN(/C(=N\C#N)Nc2cccc(OC(F)F)c2)N=C1c1ccc(Cl)c(Cl)c1` [BAY-598]: in assay [1], the “activity on schistosomula and adult schistosomes” value was “potent activities”.
Take `Cc1ccccc1Nc1nc(N2CCNCC2)nc(N2CCOCC2)n1` [Compound 14]: the “anti-schistosomula activity” value in the assay on S. mansoni schistosomula (50 µM) is listed as “only active at 50 µM”. Also, the 50% effective concentration (EC50) in the assay with S. mansoni schistosomula (setting [2]), in the assay with S. mansoni schistosomula (setting [3]) and in the assay with S. mansoni schistosomula (setting [4]) was more than 10 µM in each case.
As for `COc1cc(C(=O)N2CC[C@@H](O)[C@@H](N)C2)cc2nc(-c3cc4ccccc4n3CC3CC3)n(C)c12` [GSK484], in assay [1], the “activity on schistosomula and adult schistosomes” value is given as “potent activities”.
On to `CC(C)Oc1ccc(-c2c[nH]cc2CN(C)CCN)cc1` [MS023], for which the “activity on schistosomula and adult schistosomes” value in assay [1] is “potent activities”.
For the molecule `C1CCN(c2nc(N3CCCC3)nc(N3CCNCC3)n2)C1` [Compound 17], the “anti-schistosomula activity” value with S. mansoni schistosomula (50 µM) is recorded as “active at the highest concentration”. For the same molecule, the EC50 in the assay with S. mansoni schistosomula (setting [3]) and with S. mansoni schistosomula (setting [4]) was more than 10 µM each time.
`C1CN(c2nc(N3CCOCC3)nc(N3CCOCC3)n2)CCN1` [Compound 10]: the half-maximal effective concentration (EC50) in the assay with S. mansoni schistosomula (setting [2]), in the assay with S. mansoni schistosomula (setting [3]) and in the assay on S. mansoni schistosomula (setting [4]) was more than 50 µM each time.
As to `O=[N+]([O-])c1ccc2nc(N3CCN(c4nc(N5CCOCC5)nc(N5CCOCC5)n4)CC3)sc2c1` [Compound 21], the EC50 in the assay on S. mansoni schistosomula (setting [2]), in the assay with S. mansoni schistosomula (setting [3]) and with S. mansoni schistosomula (setting [4]) was more than 50 µM each time.
Turning to `CCCc1cc(C)[nH]c(=O)c1CNC(=O)c1cc(-c2ccnc(N3CCN(C)CC3)c2)cc2c1cnn2C(C)C` [GSK343], the “activity on schistosomula and adult schistosomes” value in assay [1] is “potent activities”.
Take `c1ccc2sc(N3CCN(c4nc(N5CCOCC5)nc(N5CCOCC5)n4)CC3)nc2c1` [Compound 11]: the concentration giving a half-maximal response (EC50) in the assay with S. mansoni schistosomula (setting [2]), in the assay on S. mansoni schistosomula (setting [3]) and with S. mansoni schistosomula (setting [4]) was more than 50 µM each time.
Take `CCCc1cc(C)[nH]c(=O)c1CNC(=O)c1cc(-c2ccc(N3CCN(C(C)C)CC3)nc2)cc2c1cnn2C(C)C` [UNC1999]: the “activity on schistosomula and adult schistosomes” value in assay [1] is reported as “potent activities”.
Regarding `Clc1cc2c(NC3CCCC3)nnc(-c3ccncc3)c2cc1Cl` [Compound A-196], the “activity on schistosomula and adult schistosomes” value in assay [1] is on record as “potent activities”.
In the case of `Cc1cn(CCN2CCN(c3ccccc3-c3cc(C#N)cc(C(=O)NCCCN4CCCC4)c3)CC2)c2ccccc12` [LLY-507], the “activity on schistosomula and adult schistosomes” value in assay [1] is “potent activities”.
Take `O=S(=O)(c1ccc(Cl)cc1)N1CCN(c2nc(N3CCCCC3)nc(N3CCCCC3)n2)CC1` [Compound 18]: the 50% effective concentration (EC50) with S. mansoni schistosomula (setting [2]), in the assay with S. mansoni schistosomula (setting [3]) and in the assay on S. mansoni schistosomula (setting [4]) was more than 50 µM each time.
